Source: ChEMBL document CHEMBL1156502, “Stabilized immune modulatory RNA compounds as agonists of Toll-like receptors 7 and 8” (Proc Natl Acad Sci U S A, 2007)
The source made the active and inactive calls. The calls are words filed in the database; no cut-off is given here.

Assays:
Mus musculus [1] = test: Induction of IL12 secretion in sc dosed C57BL/6 mouse serum after 2 hrs by ELISA; assay type: functional, organism-based
Mus musculus [2] = test: Induction of cytokine secretion in C57BL/6 mouse plasma at 100 mg/kg, sc by Luminex Multiplex assay; assay type: functional, organism-based; design: dose 100 mg/kg
Mus musculus [3] = test: Induction of chemokine secretion in C57BL/6 mouse plasma at 100 mg/kg, sc by Luminex Multiplex assay; assay type: functional, organism-based; design: dose 100 mg/kg
Mus musculus [4] = test: Induction of IL10 secretion in C57BL/6 mouse plasma at 100 mg/kg, sc by Luminex Multiplex assay; assay type: functional, organism-based; design: dose 100 mg/kg
Mus musculus [5] = test: Induction of IP10 secretion in C57BL/6 mouse plasma at 100 mg/kg, sc by Luminex Multiplex assay; assay type: functional, organism-based; design: dose 100 mg/kg
Mus musculus [6] = test: Induction of IFN-gamma-induced monoamine secretion in C57BL/6 mouse plasma at 100 mg/kg, sc by Luminex Multiplex assay; assay type: functional, organism-based; design: dose 100 mg/kg
Mus musculus [7] = test: Induction of MCP1 secretion in C57BL/6 mouse plasma at 100 mg/kg, sc by Luminex Multiplex assay; assay type: functional, organism-based; design: dose 100 mg/kg
Mus musculus [8] = test: Induction of IL12 secretion in C57BL/6 mouse plasma at 100 mg/kg, sc by Luminex Multiplex assay; assay type: functional, organism-based; design: dose 100 mg/kg
Cynomolgus monkey [9] = test: Induction of immune response in cynomolgus monkey assessed as increase in number of peripheral blood neutrophils at 5 mg/kg, sc within 24 hrs; assay type: functional, organism-based; design: dose 5 mg/kg; conditions: Macaca fascicularis
Cynomolgus monkey [10] = test: Induction of immune response in cynomolgus monkey assessed as increase in number of peripheral blood monocytes at 5 mg/kg, sc within 24 hrs; assay type: functional, organism-based; design: dose 5 mg/kg; conditions: Macaca fascicularis
Cynomolgus monkey [11] = test: Increase in CD69 expression on CD3+ lymphocytes in cynomolgus monkey at 5 mg/kg, sc after 24 hrs by flow cytometry relative to control; assay type: functional, organism-based; design: dose 5 mg/kg; conditions: Macaca fascicularis
Cynomolgus monkey [12] = test: Increase in CD69 expression on CD16+ NK cells in cynomolgus monkey at 5 mg/kg, sc after 24 hrs by flow cytometry relative to control; assay type: functional, organism-based; design: dose 5 mg/kg; conditions: Macaca fascicularis
Cynomolgus monkey [13] = test: Increase in CD69 expression on CD14+ monocytes in cynomolgus monkey at 5 mg/kg, sc after 24 hrs by flow cytometry relative to control; assay type: functional, organism-based; design: dose 5 mg/kg; conditions: Macaca fascicularis
Cynomolgus monkey [14] = test: Elevation of IFNalpha in cynomolgus monkey plasma at 5 mg/kg, sc after 24 hrs; assay type: functional, organism-based; design: dose 5 mg/kg; conditions: Macaca fascicularis
Cynomolgus monkey [15] = test: Elevation of IP10 in cynomolgus monkey plasma at 5 mg/kg, sc after 24 hrs; assay type: functional, organism-based; design: dose 5 mg/kg; conditions: Macaca fascicularis
Dendritic cell = test: Induction of IFNalpha secretion in human plasmacytoid dendritic cells at 200 ug/ml after 24 hrs by Luminex Multiplex assay; assay type: functional
[16] = Stability in 1% human serum assessed as full length product after 10 mins; assay type: ADME, cell-free; conditions: read-out: Stability
[17] = target: T1, Toll-like receptor 8 (Homo sapiens) (UniProt Q9NR97); test: Activation of human TLR8 expressed in HEK293 cells assessed as increase in NF-kappaB activation at 100 ug/ml by SEAP assay; assay type: cell-based
T1 sequence (whole entry): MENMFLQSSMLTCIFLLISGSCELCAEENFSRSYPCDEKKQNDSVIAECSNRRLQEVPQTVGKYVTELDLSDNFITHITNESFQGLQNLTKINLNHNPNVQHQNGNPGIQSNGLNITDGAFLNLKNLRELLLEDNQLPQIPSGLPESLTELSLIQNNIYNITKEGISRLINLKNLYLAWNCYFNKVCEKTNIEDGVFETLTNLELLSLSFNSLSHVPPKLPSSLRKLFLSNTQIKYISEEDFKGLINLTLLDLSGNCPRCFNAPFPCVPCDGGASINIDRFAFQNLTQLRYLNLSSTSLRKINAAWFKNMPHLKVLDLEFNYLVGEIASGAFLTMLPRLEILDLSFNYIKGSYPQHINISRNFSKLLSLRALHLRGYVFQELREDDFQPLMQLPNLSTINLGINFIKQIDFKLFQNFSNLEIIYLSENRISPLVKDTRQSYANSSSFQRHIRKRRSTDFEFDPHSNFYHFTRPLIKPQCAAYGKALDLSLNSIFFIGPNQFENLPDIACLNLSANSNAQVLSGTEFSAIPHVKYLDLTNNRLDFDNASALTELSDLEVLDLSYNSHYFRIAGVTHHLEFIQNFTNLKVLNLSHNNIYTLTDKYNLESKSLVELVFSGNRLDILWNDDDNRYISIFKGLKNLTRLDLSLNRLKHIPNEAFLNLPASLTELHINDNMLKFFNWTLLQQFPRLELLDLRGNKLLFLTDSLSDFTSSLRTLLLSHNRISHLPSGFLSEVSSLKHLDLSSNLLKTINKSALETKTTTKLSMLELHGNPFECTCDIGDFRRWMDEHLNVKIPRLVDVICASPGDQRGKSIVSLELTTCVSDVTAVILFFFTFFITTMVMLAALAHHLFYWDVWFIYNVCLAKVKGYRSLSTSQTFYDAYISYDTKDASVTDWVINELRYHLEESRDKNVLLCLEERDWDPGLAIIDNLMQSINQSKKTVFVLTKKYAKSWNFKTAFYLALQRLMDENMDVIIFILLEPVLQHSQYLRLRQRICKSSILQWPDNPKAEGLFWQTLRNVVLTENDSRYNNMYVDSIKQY

[18] = target: T2, Toll-like receptor 7 (Homo sapiens) (UniProt Q9NYK1); test: Activation of human TLR7 expressed in HEK293 cells assessed as increase in NF-kappaB activation at 100 ug/ml by SEAP assay; assay type: cell-based
T2 sequence (whole entry): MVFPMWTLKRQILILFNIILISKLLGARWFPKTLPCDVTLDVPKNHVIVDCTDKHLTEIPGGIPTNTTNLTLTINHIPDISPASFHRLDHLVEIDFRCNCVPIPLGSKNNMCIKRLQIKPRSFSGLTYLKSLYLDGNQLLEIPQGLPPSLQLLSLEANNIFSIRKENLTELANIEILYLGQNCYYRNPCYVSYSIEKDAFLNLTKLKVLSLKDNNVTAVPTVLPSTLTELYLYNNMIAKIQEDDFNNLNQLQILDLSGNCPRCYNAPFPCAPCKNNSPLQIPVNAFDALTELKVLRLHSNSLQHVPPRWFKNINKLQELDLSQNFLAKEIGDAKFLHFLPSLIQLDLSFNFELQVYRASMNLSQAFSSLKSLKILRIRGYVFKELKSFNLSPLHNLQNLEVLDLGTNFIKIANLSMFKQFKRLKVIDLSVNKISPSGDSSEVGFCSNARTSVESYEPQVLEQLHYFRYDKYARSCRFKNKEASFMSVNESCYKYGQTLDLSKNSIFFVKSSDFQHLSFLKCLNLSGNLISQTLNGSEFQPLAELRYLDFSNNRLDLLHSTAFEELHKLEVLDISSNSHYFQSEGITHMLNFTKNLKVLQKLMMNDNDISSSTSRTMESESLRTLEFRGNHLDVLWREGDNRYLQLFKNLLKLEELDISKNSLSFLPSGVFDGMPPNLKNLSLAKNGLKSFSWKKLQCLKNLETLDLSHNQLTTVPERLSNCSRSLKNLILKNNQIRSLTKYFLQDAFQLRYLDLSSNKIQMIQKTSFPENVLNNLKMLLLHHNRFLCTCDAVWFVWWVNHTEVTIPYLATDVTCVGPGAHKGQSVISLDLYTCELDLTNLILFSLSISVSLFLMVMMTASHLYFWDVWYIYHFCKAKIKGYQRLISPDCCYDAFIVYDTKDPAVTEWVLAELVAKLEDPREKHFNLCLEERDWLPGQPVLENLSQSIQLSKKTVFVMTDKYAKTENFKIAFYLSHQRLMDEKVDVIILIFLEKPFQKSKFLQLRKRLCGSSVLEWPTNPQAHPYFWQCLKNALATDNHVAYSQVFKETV

spleen [19] = test: Induction of cytokine secretion in C57BL/6 mouse spleen cells at 100 ug/ml after 24 hrs by Luminex Multiplex assay; assay type: functional, cell-based
spleen [20] = test: Induction of chemokine secretion in C57BL/6 mouse spleen cells 100 ug/ml after 24 hrs by Luminex Multiplex assay; assay type: functional, cell-based

remaining at 10 min [16]: 57% | Activity [17]: Active | Activity [18]: Active
Compound: Nc1ccn([C@@H]2O[C@H](COP(O)(=S)O[C@H]3[C@@H](O)[C@H](n4ccc(=O)[nH]c4=O)O[C@@H]3COP(O)(=S)O[C@H]3[C@@H](O)[C@H](n4ccc(=O)[nH]c4=O)O[C@@H]3COP(O)(=S)O[C@H]3[C@@H](O)[C@H](n4ccc(N)nc4=O)O[C@@H]3COP(O)(=S)O[C@H]3[C@@H](O)[C@H](n4ccc5c(=O)[nH]c(N)nc54)O[C@@H]3COP(O)(=S)O[C@H]3[C@@H](O)[C@H](n4ccc(=O)[nH]c4=O)O[C@@H]3COP(O)(=S)O[C@H]3[C@@H](O)[C@H](n4ccc(N)nc4=O)O[C@@H]3COP(O)(=S)O[C@H]3[C@@H](O)[C@H](n4ccc5c(=O)[nH]c(N)nc54)O[C@@H]3COP(O)(=S)O[C@H]3[C@@H](O)[C@H](n4ccc(=O)[nH]c4=O)O[C@@H]3CO)[C@@H](OP(O)(=S)OC[C@H]3O[C@@H](n4ccc(=O)[nH]c4=O)[C@H](O)[C@@H]3OP(O)(=S)OC[C@H]3O[C@@H](n4ccc5c(=O)[nH]c(N)nc54)[C@H](O)[C@@H]3OP(O)(=S)OCC(O)COP(O)(=S)O[C@H]3[C@@H](O)[C@H](n4ccc5c(=O)[nH]c(N)nc54)O[C@@H]3COP(O)(=S)O[C@H]3[C@@H](O)[C@H](n4ccc(=O)[nH]c4=O)O[C@@H]3COP(O)(=S)O[C@H]3[C@@H](O)[C@H](n4ccc(N)nc4=O)O[C@@H]3COP(O)(=S)O[C@H]3[C@@H](O)[C@H](n4ccc(=O)[nH]c4=O)O[C@@H]3COP(O)(=S)O[C@H]3[C@@H](O)[C@H](n4ccc(=O)[nH]c4=O)O[C@@H]3COP(O)(=S)O[C@H]3[C@@H](O)[C@H](n4ccc(N)nc4=O)O[C@@H]3COP(O)(=S)O[C@H]3[C@@H](O)[C@H](n4ccc5c(=O)[nH]c(N)nc54)O[C@@H]3COP(O)(=S)O[C@H]3[C@@H](O)[C@H](n4ccc(=O)[nH]c4=O)O[C@@H]3COP(O)(=S)O[C@H]3[C@@H](O)[C@H](n4ccc(N)nc4=O)O[C@@H]3COP(O)(=S)O[C@H]3[C@@H](O)[C@H](n4ccc5c(=O)[nH]c(N)nc54)O[C@@H]3COP(O)(=S)O[C@H]3[C@@H](O)[C@H](n4ccc(=O)[nH]c4=O)O[C@@H]3CO)[C@H]2O)c(=O)n1 (stereo partly specified)
Activity (Mus musculus [1]): Dose-dependent effect | Activity (Mus musculus [2]): inactive | Activity (Mus musculus [3]): inactive | Activity (Mus musculus [4]): Active | Activity (Mus musculus [5]): Active | Activity (Mus musculus [6]): Active | Activity (Mus musculus [7]): Active | Activity (Mus musculus [8]): Active | Activity (Cynomolgus monkey [9]): Active | Activity (Cynomolgus monkey [10]): Active | Activity (Cynomolgus monkey [11]): Active | Activity (Cynomolgus monkey [12]): Active | Activity (Cynomolgus monkey [13]): Active | Activity (Cynomolgus monkey [14]): Active | Activity (Cynomolgus monkey [15]): Active | Activity (Dendritic cell): Active | Activity (spleen [19]): Dose-dependent effect | Activity (spleen [20]): Dose-dependent effect
